# Reference: patent publication US7985573B2, “Targeted drug-carrying bacteriophages” (priority 2005, dated 2011)
# Legend:
# [1] = Solubilization of FITC by hygromycin; type: physicochemical
# From the text: For conjugating a hydrophobic cargo, the drug, activated for amine conjugation (in the following experiments, NHS and isothiocynate chemistries were used) was initially reacted in an aqueous solution (NaHCO3 0.1 M pH=8.5) of an aminoglycoside at a concentration lower than the number of available amine groups (to leave one amine available for the subsequent conjugation to the carrier). The reaction was stirred gently for overnight at room temperature. Then the solution was titrated with HCl and Na-citrate buffer was added to final concentration of 0.1 M (pH=5.5). This solution was brought to a final molar concentration of 0.75 M NaCl and finally the carrier bacteriophages was added followed by immediate addition of EDC at concentration of ×100 molar excess over the target carboxyl side chains of the targeted drug carrier. This reaction was stirred gently for 1-2 hours at room temperature, followed by exhaustive dialysis against PBS/0.3 M NaCl. This process is illustrated in FIG. 13.
# EDC mediated conjugation of aminoglycosides was first accomplished by using hygromycin as a model linker. hygromycin contains only two primary amines, one for drug conjugation and the other for conjugation to a carrier. Hygromycin was initially conjugated to FITC as described above.
# [2] = tested on: susceptible bacteria; test: Growth inhibition of susceptible bacteria by the chloramphenicol-prodrug; type: cell-based; conditions: concentrations up to ×100 of the free chloramphenicol IC50
# [3] = Stability of the CAM-linker adduct without serum (pH, PBS), HPLC; type: physicochemical
# Method: To test the CAM release rate, a reverse phase HPLC analysis was done based on the fact that elution time of free CAM is about 9 min while the CAM-linker adduct is eluted about 16 min after sample injection into a reverse phase C18 column. This was done as follows: reverse phase HPLC was used to measure the chloramphenicol release rate following the incubation of chloramphenicol-prodrug in 10% or in 99% horse serum, or without serum, all in PBS. A reverse phase C-18 column was used on a LabChrom L7400 MERCK HITACHI machine with acetonitrile:water (30:70) in the mobile phase at 1 ml/min flow rate. Under these conditions, free chloramphenicol is eluted 9 min after sample loading while the intact chloramphenicol-prodrug is eluted 16 min after sample loading. The % of released chloramphenicol was calculated by dividing the area of the 9 min peak by the total peak area of all relevant peaks and multiplying by 100.
# [4] = tested on: serum esterases; test: Chloramphenicol release from its linker in horse serum, reverse phase HPLC
# Method: CAM release rate from its linker in 99% horse serum. (A) Reverse phase HPLC was used to measure the breakdown rate following the incubation for the indicated time periods in 99% horse serum at 37° C. Free chloramphenicol (marked by black arrows) is eluted 9 min after sample loading while intact chloramphenicol-linker adduct (marked by gray arrows) is eluted 16 min after sample loading. (B) release rate of chloramphenicol from its linker in 10% horse serum (gray bars) or without serum (in PBS, black bars) was evaluated by HPLC as in A, the % released chloramphenicol was calculated by dividing the area of the 9 min peak by the total peak area of all relevant peaks.
# To test the CAM release rate, a reverse phase HPLC analysis was done based on the fact that elution time of free CAM is about 9 min while the CAM-linker adduct is eluted about 16 min after sample injection into a reverse phase C18 column. This was done as follows: reverse phase HPLC was used to measure the chloramphenicol release rate following the incubation of chloramphenicol-prodrug in 10% or in 99% horse serum, or without serum, all in PBS. […] The % of released chloramphenicol was calculated by dividing the area of the 9 min peak by the total peak area of all relevant peaks and multiplying by 100.
# [5] = tested on: Staphylococcus aureus; test: Growth of Staphylococcus aureus treated with drug-carrying peptide-displaying phages; type: cell-based; conditions: free drug at concentration equivalent to that released by the phages
# From the text: FIG. 11. The effect of drug-carrying peptide-displaying phages on the growth of Staphylococcus aureus. (A) Growth curves of SA cells treated with SA-specific chloramphenicol prodrug-conjugated phage A12C (triangles), chloramphenicol prodrug-conjugated irrelevant phage F2b (circles), non conjugated SA-specific phage A12C as negative control (squares). (B) Growth curves of SA cells treated with SA-specific chloramphenicol prodrug-conjugated phage A12C (triangles) or various concentration of free chloramphenicol: 0.533 μg/ml (large filled circles), 1.0625 μg/ml (small open circles), 2.125 μg/ml (large open circles) or cells grown without any growth inhibitor (filled squares). Error bars represent the standard deviation of the data.
# Phage A12C was chosen to assess the targeting effect of chloramphenicol-conjugated S. aureus-specific peptide-displaying phages. Conjugates were evaluated for their effect on bacterial growth as follows: an overnight bacterial culture was diluted ×100 in PBS. 1 ml of diluted bacteria was collected by centrifugation at 14,000 RPM and pellet re-suspended in 100 μl PBS. 10 μl of this bacterial suspension was mixed with 100 μl of 10^12 phages in ml PBS, and then incubated for 1 hr. […] Growth was recorded after dilution into the TSB medium by recording the optical density (OD) at 600 nm.
smiles,measurement,setting,value
O=C1OC2(c3ccc(O)cc3Oc3cc(O)ccc32)c2ccc(N=C=S)cc21 [FITC],solubility in aqueous buffer,[1]; FITC stock solution (38.9 mg/ml in DMSO) added to equal volume of buffer without aminoglycosides,immediate formation of precipitate
same,solubility in aqueous buffer,"[1]; conjugated to hygromycin, molar ratio 10 hygromycin:1 FITC",immediate solubilization
O=C(CCCC(=O)ON1C(=O)CCC1=O)OC[C@@H](NC(=O)C(Cl)Cl)[C@H](O)c1ccc([N+](=O)[O-])cc1 [chloramphenicol-prodrug],inhibition of the growth of susceptible bacteria,[2],did not inhibit the growth
same,spontaneous hydrolysis rate of the ester bond,"[3]; PBS alone, entire 48 h period",less than 5%
same,stability of CAM-linker adduct,[3]; pH values between 6-8,stable
same,release rate kinetics,"[4]; 10% horse serum, monitored over 48 hours, compared with 99% serum after correcting for concentration",same linear kinetics
same,CAM released from the linker,"[4]; 1 hr incubation in 99% horse serum at 37° C., linear kinetics",about 15%
O=C(N[C@H](CO)[C@H](O)c1ccc([N+](=O)[O-])cc1)C(Cl)Cl [chloramphenicol],growth of the SA bacteria (OD 600 nm),[5],did not retard
